Measurements as given in patent US11884649B2, “IRE1α inhibitors and uses thereof” (The Regents of the University of California, priority 2020, dated 2024).

Legend:
[1] = biological target: T1, IRE1α* (Homo sapiens, UniProt O75460); assay: In vitro kinase activity assay (IRE1α kinase inhibition); assay type: biochemical
T1 construct: human IRE1α (residues 547-977, IRE1α*) was expressed in SF9 insect cells; His6 (N); made in house; host or cells: Sf9 insect cells (Bac-to-Bac baculovirus)
Outline: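 His6-tagged human IRE1α cytosolic kinase/RNase domains (residues 547-977) from SF9 cells, preincubated 30 min with inhibitor (top 10 or 60 μM, three-fold dilutions) in pH 7.5 HEPES/MgCl2 buffer, then 10 μCi [γ-32P]ATP, 23 °C, 3 h. Filter-spot autoradiography; inhibition normalised to no-kinase and DMSO wells; IC50 from one-site fit.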

[2] = biological target: T2, IRE1α (Rattus norvegicus, UniProt A0A4Y1YQ52); assay: ER stress-mediated IRE1α autophosphorylation by Phos-tag SDS-PAGE in INS-1 cells (Brefeldin-A); assay type: cell-based; conditions: various concentrations, 200 ng/μL Brefeldin-A (BFA) for 2 hours
T2 construct: endogenous in cells; host or cells: INS-1 rat insulinoma beta cells
T2 sequence (A0A4Y1YQ52 21-977): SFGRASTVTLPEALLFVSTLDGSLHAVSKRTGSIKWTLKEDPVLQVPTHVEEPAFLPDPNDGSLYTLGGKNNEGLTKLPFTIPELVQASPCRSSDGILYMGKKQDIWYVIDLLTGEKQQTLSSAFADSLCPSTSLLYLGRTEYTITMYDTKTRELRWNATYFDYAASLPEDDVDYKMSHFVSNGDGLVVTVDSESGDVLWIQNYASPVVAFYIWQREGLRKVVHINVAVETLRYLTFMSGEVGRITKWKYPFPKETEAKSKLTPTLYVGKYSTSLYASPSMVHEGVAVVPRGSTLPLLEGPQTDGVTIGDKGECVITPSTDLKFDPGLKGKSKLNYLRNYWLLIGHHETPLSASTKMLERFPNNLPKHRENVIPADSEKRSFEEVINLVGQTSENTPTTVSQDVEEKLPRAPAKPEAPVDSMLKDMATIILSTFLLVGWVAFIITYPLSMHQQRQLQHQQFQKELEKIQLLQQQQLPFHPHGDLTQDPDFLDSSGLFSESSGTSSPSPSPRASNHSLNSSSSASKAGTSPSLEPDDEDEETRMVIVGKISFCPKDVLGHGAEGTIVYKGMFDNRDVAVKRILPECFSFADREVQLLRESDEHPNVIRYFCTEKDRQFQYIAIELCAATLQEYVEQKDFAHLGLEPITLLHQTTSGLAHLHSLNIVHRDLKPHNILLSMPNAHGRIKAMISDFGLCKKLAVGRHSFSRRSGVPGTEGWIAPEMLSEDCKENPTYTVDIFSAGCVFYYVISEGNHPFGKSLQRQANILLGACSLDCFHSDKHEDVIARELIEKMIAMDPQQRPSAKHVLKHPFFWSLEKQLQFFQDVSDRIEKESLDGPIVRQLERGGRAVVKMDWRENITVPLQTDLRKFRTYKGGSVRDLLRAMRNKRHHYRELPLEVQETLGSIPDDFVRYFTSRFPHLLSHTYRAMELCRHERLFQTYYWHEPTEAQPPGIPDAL
Description: FIG. 21. […] Immunoblots for total IRE1α (bottom) from INS-1 cells treated with various concentrations of PAIR1 or KIRA9 followed by the addition of 200 ng/μL Brefeldin-A (BFA) for 2 hours. Samples were subjected to Phos-tag SDS-PAGE and % autophosphorylated IRE1α (top) was determined from the ratio of phosphorylated IRE1α relative to total IRE1α. Values shown are mean±SEM (n=3).
Treatment Conditions for Phostag Gels
INS-1 or IRE1α-overexpressing isogenic INS-1 cells were plated onto a 24-well Poly-D-Lysine coated tissue culture plate and grown for 48 hrs. Inhibitor or DMSO were added to the media and incubated for 1 hour at 37° C. with 5% CO2 prior to addition of ER stress agents. […] Cells were lysed directly into SDS loading buffer (50 mM Tris, 100 mM DTT, 2% SDS (w/v), 10% glycerol (v/v), and 0.1% bromophenol blue (w/v), pH 6.8) and boiled for five minutes prior to gel loading.
Phostag Acrylamide Gel Procedure
A phostag acrylamide gel recipe used to resolve phosphorylation of IRE1α has been previously established and this recipe was followed verbatim for this study.^91 Resolving gels were allowed to solidify (˜1.5 hr) before adding the stacking gel and comb and allowed to solidify (˜1 hr). Gels were run using Tris-Glycine-SDS running buffer (25 mM Tris, 192 mM glycine, 0.1% SDS, pH 8.3) at 100 V for 3-3.5 hours. […]

[3] = test system: RIDD (IRE1α-dependent mRNA decay); assay: RIDD (Blos1 mRNA) in ER-stressed INS-1 cells; assay type: cell-based, rat; conditions: 2 mM DTT, 20 μM compound
Description: (§1) RNA Isolation, Quantitative Real-Time PCR, and Primers
(§2) INS-1 or isogenic IRE1α-overexpressing INS-1 cells were plated onto Poly-D-Lysine coated tissue culture plate and grown for 48 hrs. Inhibitors or DMSO were added to the media and incubated for 1 hour at 37° C. with 5% CO2 prior to addition of ER stress agents or Dox as indicated. RNA was isolated from whole cells using either QIAGEN RNeasy Mini kits or Trizol (Invitrogen) and reverse transcribed as above to obtain total cDNA. Then, XBP-1 primers were used to amplify an XBP-1 amplicon spanning the 26 nt intron from the cDNA samples in a regular 3-step PCR. Thermal cycles were: 5 min at 95° C., 30 cycles of 30 s at 95° C., 30 s at 60° C., and 1 min at 72° C., followed by 72° C. for 15 min, and hold at 4° C. Primers used for XBP-1 mRNA splicing were as follows: sense primer XBP1.3 S (5′ […]-3′ (SEQ ID NO:2)) and antisense primer XBP1.2AS (5′-[…]-3′ (SEQ ID NO:3)). PCR fragments were then digested by PstI, resolved on 3% agarose gels, stained with EtBr and quantified by densitometry using ImageJ (NIH). For standard mRNA detection, generally […] total RNA was reverse transcribed using the QuantiTect Reverse Transcription Kit (QIAGEN). For qPCR, we used SYBR green (QIAGEN) and StepOnePlus Real-Time PCR System (Applied Biosystems). Thermal cycles were: 5 min at 95° C., 40 cycles of 15 sec at 95° C., 30 sec at 60° C. […]

[4] = test system: XBP1 mRNA splicing; assay: XBP1 splicing in ER-stressed INS-1 cells; assay type: cell-based, rat; conditions: DTT, 20 μM compound
Description: as §1, §2

T1 sequence (O75460 547-977): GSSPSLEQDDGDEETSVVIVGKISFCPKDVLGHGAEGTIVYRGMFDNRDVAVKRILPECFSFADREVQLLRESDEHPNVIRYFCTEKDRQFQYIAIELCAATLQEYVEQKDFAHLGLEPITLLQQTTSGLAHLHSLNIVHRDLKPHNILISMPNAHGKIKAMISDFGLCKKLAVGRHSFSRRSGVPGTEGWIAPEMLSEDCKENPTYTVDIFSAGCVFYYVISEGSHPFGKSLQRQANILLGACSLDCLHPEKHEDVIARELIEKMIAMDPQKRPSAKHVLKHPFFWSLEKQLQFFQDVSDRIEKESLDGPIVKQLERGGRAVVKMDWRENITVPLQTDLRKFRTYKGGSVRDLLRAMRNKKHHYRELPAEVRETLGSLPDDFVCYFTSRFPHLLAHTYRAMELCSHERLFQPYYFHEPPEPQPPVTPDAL

Row | SMILES | Ki ([1]; read-out: Inhibition of IRE1α*'s kinase activity, Ki) | IRE1α autophosphorylation [2] | RIDD (Blos1 mRNA) [3] | IC50 ([1]; IRE1α kinase inhibition, read-out: IC50 IRE1a) | XBP1 mRNA splicing [4]
1 | O=S(=O)(CCC(F)(F)F)Nc1ccc(Oc2ncccc2-c2ccnc(NC3CCCNC3)n2)c2ccccc12 (stereo not shown) [KIRA9, 3,3,3-trifluoro-N-(4-(3-(2-(piperidin-3-ylamino)pyrimidin-4-yl)pyridin-2-yloxy)naphthalen-1-yl)propane-1-sulfonamide] | 160 nM | equipotently block ER stress-mediated IRE1α autophosphorylation | equivalently blunt RIDD |  | 
2 | O=S(=O)(CC(F)(F)F)Nc1ccc(Oc2ncccc2-c2ccnc(N[C@H]3CCCNC3)n2)c2ccccc12 (stereo in doubt) [PAIR1, 2,2,2-trifluoro-N-(4-(3-(2-(piperidin-3-ylamino)pyrimidin-4-yl)pyridin-2-yloxy)naphthalen-1-yl)ethanesulfonamide] |  | equipotently block ER stress-mediated IRE1α autophosphorylation | equivalently blunt RIDD | 25 nM | only weakly inhibited
